From patent publication US11319318B2, “Pyridinones and isoquinolinones as inhibitors of the bromodomain BRD9” (Boehringer Ingelheim International GmbH, priority 2015, dated 2022) come the findings set out here.

A word on the IC50: it is the point on the concentration scale where inhibition reaches its midpoint. A low value points to inhibition by little substance.

This assay has as its target T1, bromodomain of BRD9 (GST-BRD9 aa 130-259) / H3 K9/14/18/23Ac(1-28) peptide (Homo sapiens, UniProt Q9H8M2).
T1 construct: The protein corresponding to amino acids 130-259 that contains the bromodomain of BRD9; made in house; host or cells: E. coli
T1 sequence (Q9H8M2 130-259): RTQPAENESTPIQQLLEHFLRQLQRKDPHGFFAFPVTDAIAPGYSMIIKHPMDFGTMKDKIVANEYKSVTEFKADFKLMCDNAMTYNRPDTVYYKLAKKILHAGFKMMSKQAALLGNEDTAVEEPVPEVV
Briefly: BRD9-H3 tetra-acetylated Peptide Inhibition AlphaScreen. It counts as binding.
Description: Biological Methods BRD9-H3 tetra-acetylated Peptide Inhibition AlphaScreen
This assay is used to identify compounds which inhibit the interaction of the bromodomain of BRD9 with a tetra-acetylated peptide based on the sequence of histone H3 (H3 K9/14/18/23Ac (1-28)).
AlphaScreen Beads (Perkin Elmer):
AlphaLISA Glutathione Acceptor Beads
AlphaScreen Streptavidin Donor Beads
The assay is done in a darkened room below 100 Lux.
Compounds are dispensed onto assay plates using an Access Labcyte Workstation with the Labcyte Echo 550 from a DMSO solution. For the chosen highest concentration of 100 μM, 150 nl of compound solution are transferred from a 10 mM DMSO solution. […] DMSO is added such that every well has a total of 150 nl of DMSO.
After 60 min at room temperature the signal is measured in a PerkinElmer Envision HTS Multilabel Reader using the AlphaScreen specifications from PerkinElmer.
Each plate contains negative controls where biotinylated H3 K9/14/18/23Ac(1-28) peptide and GST-BRD9 are left out and replaced by assay buffer. Negative control values are entered as low basis value when using the software GraphPad Prism for calculations.
`COc1cc(-c2cc(C)c(=O)n(C)c2C)ccc1C1(N(C)C)CC1` [Compound I-122] came in with an IC50 of 116 nM. That is a sub-micromolar value.
Consider `COc1cc(-c2cc(C)c(=O)n(C)c2C)cc(OC)c1CN1CCNCC1` [Compound I-124], for which it took 144 nM to reach half-maximal inhibition (IC50).
Under `COc1cc(S(=O)(=O)N(C)CCN(C)C)c(OC)cc1-c1cc(C)c(=O)n(C)c1C` [Compound I-125] stands 166 nM; under `Cc1cc(-c2ccc3c(c2)CNC3)c(C)n(C)c1=O` [Compound I-126], 167 nM.
In the case of `COc1cc(-c2cc(C)c(=O)n(C)c2C)ccc1CN1C[C@@H]2CC1CN2` [Compound I-127], half-maximal inhibition (IC50) was put at 198 nM.
Under `COc1cc(-c2cc(C)c(=O)n(C)c2C)ccc1CN1C[C@H]2C[C@@H]1CN2C` [Compound I-128] stands 222 nM; under `Cc1cc(-c2ccc(C(=O)C3CCNCC3)cc2)c(C)n(C)c1=O` [Compound I-129], 284 nM.
Compound `COCc1c(OC)cc(-c2cc(C)c(=O)n(C)c2C)cc1OC` [Compound I-130] gave an IC50 of 302 nM.
Under `COc1cc(-c2cc(C)c(=O)n(C)c2C)c(OC)cc1CN1CCN(C)CC1` [Compound I-131] stands 303 nM; under `COc1cc(-c2cc(C)c(=O)n(C)c2C)cc(OC)c1CN1CCN(C)CC1` [Compound I-132], 322 nM; under `COc1cc(-c2cc(C)c(=O)n(C)c2C)ccc1CN1C[C@@H]2CC1CN2C` [Compound I-133], 387 nM.
To `COc1cc(-c2cc(C)c(=O)n(C)c2C)ccc1CN1CC(OC)C1` [Compound I-134] belongs 394 nM; to `Cc1cc(-c2cc(C)c(=O)n(C)c2C)ccc1C1(N2CCN(C)CC2)CC1` [Compound I-135], 851 nM.
Under `Cc1cc(-c2cc(C)c(=O)n(C)c2C)ccc1C(=O)N1CCN(C)CC1` [Compound I-136] stands 1920 nM; under `Cc1c(-c2ccc(CN)cc2)cn(C)c(=O)c1C` [Compound I-137, 5-(4-Aminomethyl-phenyl)-1,3,4-trimethyl-1H-pyridin-2-one], 834 nM; under `Cc1c(-c2ccc([C@H](C)N)cc2)cn(C)c(=O)c1C` [Compound I-138], 1260 nM.
As for `Cc1c(-c2ccc([C@@H](C)N)cc2)cn(C)c(=O)c1C` [Compound I-139], the IC50 is 1380 nM.
Under `Cc1cc(-c2ccc(CN)cc2)c(C)n(C)c1=O` [Compound I-140] stands 880 nM; under `Cc1cc(-c2ccc([C@@H](C)N)cc2)c(C)n(C)c1=O` [Compound I-141], 1860 nM.
To `Cc1cc(-c2ccc([C@H](C)N)cc2)c(C)n(C)c1=O` [Compound I-142] belongs 1960 nM.
Under `COc1cc(-c2cc(C)c(=O)n(C)c2)ccc1COC1CNC1` [Compound I-144] stands 26 nM; under `COc1cc(-c2cc(C)c(=O)n(C)c2)cc(OC)c1CNC1CNC1` [Compound I-145], 32 nM.
Regarding `CNC1CN(Cc2c(OC)cc(-c3cc(C)c(=O)n(C)c3)cc2OC)C1` [Compound I-146], inhibition was half-maximal at 33 nM (IC50).
As for `COc1cc(S(=O)(=O)N2CCNCC2)c(OC)cc1-c1cc(C)c(=O)n(C)c1` [Compound I-147], 126 nM corresponded to half-maximal inhibition (IC50).
Regarding `COc1cc(-c2cc(C)c(=O)n(C)c2)ccc1S(=O)(=O)N1CCNCC1` [Compound I-148], the IC50 was found to be 144 nM. This IC50 and that of the compound before are within 1.5-fold of each other.
Regarding `Cc1cc(-c2ccc(CN3CCNCC3)c(N(C)C)c2)cn(C)c1=O` [Compound I-149, 5-(3-Dimethylamino-4-piperazin-1-ylmethyl-phenyl)-1,3-dimethyl-1H-pyridin-2-one], the 50% inhibitory concentration (IC50) was determined as 160 nM.
The compound `COc1cc(-c2cc(C)c(=O)n(C)c2)c(OC)cc1CN1CCNCC1` [Compound I-150] yielded a concentration for half-maximal inhibition (IC50) of 298 nM.
Compound `COc1cc(S(=O)(=O)NC2CNC2)c(OC)cc1-c1cn(C)c(=O)c(C)c1C` [Compound I-151] returned an IC50 of 26 nM.
The compound `CNCCN(C)S(=O)(=O)c1cc(OC)c(-c2cn(C)c(=O)c(C)c2C)cc1OC` [Compound I-152] came in with a 50% inhibitory concentration (IC50) of 145 nM.
Consider `COc1cc(-c2cc(C)c(=O)n(C)c2C)ccc1COC1CNC1` [Compound I-153], for which the half-maximal inhibitory concentration (IC50) turned out to be 29 nM.
Under `COc1cc(S(=O)(=O)NC2CNC2)c(OC)cc1-c1cc(C)c(=O)n(C)c1C` [Compound I-154] stands 38 nM; under `CNCCN(C)S(=O)(=O)c1cc(OC)c(-c2cc(C)c(=O)n(C)c2C)cc1OC` [Compound I-155], 128 nM.
In the case of `COc1cc(-c2cc(C)c(=O)n(C)c2C)c(OC)cc1CN1CCNCC1` [Compound I-156], the IC50 turned out to be 1780 nM.
The compound `CCc1cc(-c2cc(C)c(=O)n(C)c2)cc(OC)c1C(=O)N1CCNCC1` [Compound I-157, 5-[3-Ethyl-5-methoxy-4-(piperazine-1-carbonyl)-phenyl]-1,3-dimethyl-1H-pyridin-2-one] gave an IC50 of 89 nM.
Under `COc1cc(-c2cc(C)c(=O)n(C)c2)cc(C)c1C(=O)N1CCNCC1` [Compound I-159] stands 167 nM.
Turning to `Cc1cc(C(=O)N2CCNCC2)ccc1-c1cc(C)c(=O)n(C)c1` [Compound I-163], the IC50 is 550 nM.
Under `COc1cc(-c2cc(I)c(=O)n(C)c2)ccc1C(=O)N1CCNCC1` [Compound I-164, 3-Iodo-5-[3-methoxy-4-(piperazine-1-carbonyl)-phenyl]-1-methyl-1H-pyridin-2-one] stands 64 nM; under `COc1cc(-c2cc(I)c(=O)n(C)c2)ccc1C(=O)N1CCN(C)CC1` [Compound I-166], 230 nM.
To `COc1cc(-c2cn(C)c(=O)c(I)c2C)cc(OC)c1CN(C)C` [Compound I-167] belongs 41 nM; to `COc1cc(-c2cc(I)c(=O)n(C)c2C)cc(OC)c1CN(C)C` [Compound I-168], 40 nM; to `Cc1cc(-c2ccc(C(=O)N3CCN(C)CC3)c(OC(F)(F)F)c2)cn(C)c1=O` [Compound I-177, 1,3-Dimethyl-5-[4-(4-methyl-piperazine-1-carbonyl)-3-trifluoromethoxy-phenyl]-1H-pyridin-2-one], 1320 nM.
The compound `COc1cc(-c2cc(C)c(=O)n(C)c2)ccc1CN1CC(Cl)C1` [Compound I-178, 5-[4-(3-Chloro-azetidin-1-ylmethyl)-3-methoxy-phenyl]-1,3-dimethyl-1H-pyridin-2-one] came in with an IC50 of 38 nM.
To `Cc1cc(-c2ccc(CN3CC(O)C3)cc2)cn(C)c1=O` [Compound I-179, 5-[4-(3-Hydroxy-azetidin-1-ylmethyl)-phenyl]-1,3-dimethyl-1H-pyridin-2-one] belongs 187 nM; to `Cc1cc(-c2ccc(CN3CCCC3)cc2)cn(C)c1=O` [Compound I-180], 870 nM; to `CNCc1ccc(-c2cc(C)c(=O)n(C)c2)cc1` [Compound I-181], 1000 nM.
To `Cc1cc(-c2ccc(CN3CCCCC3)cc2)cn(C)c1=O` [Compound I-182] belongs 1050 nM.
Regarding `Cc1cc(-c2ccc(CN3CC4CCC3C4)cc2)cn(C)c1=O` (stereo not drawn) [Compound I-184], the half-inhibitory concentration (IC50) was 1320 nM.
`Cc1cc(-c2ccc(Cn3ccnc3)cc2)cn(C)c1=O` [Compound I-185] came in with a half-maximal inhibitory concentration (IC50) of 1550 nM.
To `Cc1cc(-c2cc(C)c(=O)n(C)c2)c(C)cc1CN1CCNCC1` [Compound I-186, 5-(2,5-Dimethyl-4-piperazin-1-ylmethyl-phenyl)-1,3-dimethyl-1H-pyridin-2-one] belongs 967 nM; to `Cc1cc(-c2cc(C)c(=O)n(C)c2)c(C)cc1CN1CCN(C)CC1` [Compound I-187], 4300 nM; to `Cc1cc(-c2ccc(CN3CCN(C)CC3)c(O)c2)cn(C)c1=O` [Compound I-194, 5-[3-Hydroxy-4-(4-methyl-piperazin-1-ylmethyl)-phenyl]-1,3-dimethyl-1H-pyridin-2-one], 458 nM.
Under `COCCOc1cc(-c2cc(C)c(=O)n(C)c2)ccc1CN1CCN(C)CC1` [Compound I-195, 5-[3-(2-Methoxy-ethoxy)-4-(4-methyl-piperazin-1-ylmethyl)-phenyl]-1,3-dimethyl-1H-pyridin-2-one] stands 369 nM.
Take `Cc1cc(-c2ccc(CN3CCN(C)CC3)c(OC(C)C)c2)cn(C)c1=O` [Compound I-196]: half-maximal inhibition (IC50) required 1010 nM.
Turning to `CCOc1cc(-c2cc(C)c(=O)n(C)c2)ccc1CN1CCN(C)CC1` [Compound I-197, 5-[3-Ethoxy-4-(4-methyl-piperazin-1-ylmethyl)-phenyl]-1,3-dimethyl-1H-pyridin-2-one], the half-inhibitory concentration (IC50) was 468 nM.
To `COc1cc(-c2cc(C)c(=O)n(C)c2)ccc1CN1CCN(Cc2cccc(N)c2)CC1` [Compound I-198, 5-{4-[4-(3-Amino-benzyl)-piperazin-1-ylmethyl]-3-methoxy-phenyl}-1,3-dimethyl-1H-pyridin-2-one] belongs 71 nM; to `COc1cc(-c2cc(C)c(=O)n(C)c2)ccc1CN1CCN(Cc2ccc3nc[nH]c3c2)CC1` [Compound I-199], 55 nM.
Under `COc1cc(-c2cc(C)c(=O)n(C)c2)ccc1CN1CCN(Cc2cccc(O)c2)CC1` [Compound I-200] stands 132 nM.
To `COc1cc(-c2cc(C)c(=O)n(C)c2)cc(C)c1CN` [Compound I-202, 5-(4-Aminomethyl-3-methoxy-5-methyl-phenyl)-1,3-dimethyl-1H-pyridin-2-one] belongs 268 nM; to `Cc1cc(-c2ccc(CN3CCN(C)CC3)c(N(C)C)c2)cn(C)c1=O` [Compound I-204, 5-[3-Dimethylamino-4-(4-methyl-piperazin-1-ylmethyl)-phenyl]-1,3-dimethyl-1H-pyridin-2-one], 231 nM; to `COc1cc(-c2cc(C)c(=O)n(C)c2)cc(OC)c1CNC1CN(C)C1` [Compound I-205, 5-{3,5-Dimethoxy-4-[(1-methyl-azetidin-3-ylamino)-methyl]-phenyl}-1,3-dimethyl-1H-pyridin-2-one], 69 nM.
